{"source": "patent US10258580B2", "about": "“Cannabinoids for use in the treatment of neurodegenerative diseases or disorders” (priority 2011, dated 2019)", "key": {"[1]": {"system": "neuronal cultures exposed to glutamate", "conditions": "in vitro, pure/synthetic preparations; cited from earlier work"}, "SH-SY5Y cells [2]": {"system": "SH-SY5Y cells", "assay": "Aβ-induced SH-SY5Y cell viability, MTT/formazan test (Example 2)", "type": "cell-based, human", "conditions": "Aβ (1-42) 1 μg/mL, 24 hours; 10^−7 M", "experimental": "(§1) Glial cells (C6) were cultured in 10% FBS supplemented DMEM, and SHY-5SY were cultured in 10% FBS supplemented RPMI. Neuronal cells were differentiated with retinoic acid. After 24 hours of starvation glial cells and SHY-5SY were treated with CBDV (10^−7M), CBD (10^−7 M), CBDVA (10^−7 M), CBDA (10^−7 M) and THCVA (10^−7 M) in presence or absence of Aβ (1-42) (1 μg/mL) for following 24 hours.\n(§2) Cell activation/viability was determined using 3(4,5-dimethylthiazol-2yl)2,5-diphenyl-2H-tetrazolium bromide (MTT) assay, an assay based on the ability of viable cells to convert MTT in formazan salt. Briefly, the cells were plated in 96-well culture plates at the density of 5×10^3 cells/well and allowed to adhere at 37° C. for 2 hours. Thereafter, the medium was replaced with fresh medium and the cells were treated as above described. After 24 hours 25 μl MTT (5 mg/ml in DMEM) was added to the cells and incubated for additional 3 hours at 37° C. After this time, the cells were lysed and the dark blue crystals solubilized with 125 μl of a solution containing 50% (v/v) N,N, dimethylformamide, 20% (w/v) sodium dodecylsulphate, with an adjusted pH of 4.5. The optical density of each well was measured with a microplate spectrophotometer (Titertek Multiscan MCC/340) equipped with a 620 nm filter."}, "SH-SY5Y cells [3]": {"system": "SH-SY5Y cells", "assay": "Aβ-induced SH-SY5Y viable cell number, cell counting by TC10 System", "type": "cell-based, human", "conditions": "Aβ (1-42) 1 μg/mL, 24 hours; 10^−7 M", "experimental": "as §1\nIn another set of experiments cell counting was performed by TC10 System (BIO-RAD), according to manufacturing instruction."}, "COX2": {"system": "COX2", "assay": "COX2 protein expression in Aβ-stimulated C6 cells, western blot", "type": "cell-based", "conditions": "Aβ (1-42) 1 μg/mL, 24 hours, 10^−7 M", "experimental": "as §1\n(§3) Western blot analysis was performed on C6 and SHY-5SY cell lysate. Briefly cells were rapidly homogenized in 60 μl of ice-cold hypotonic lysis buffer [10 mM HEPES, 1.5 mM MgCl2, 10 mM KCl, 0.5 mM phenylmethylsulfonyl fluoride, 1.5 μg/mL soybean trypsin inhibitor, pepstatin A 7 μg/mL, leupeptin 5 μg/mL, 0.1 mM benzamidine, 0.5 mM dithiothreitol (DTT)]. After this time, the cytoplasmic fractions were then obtained by centrifugation at 13000 g for 10 min and protein concentration in the samples was determined with Bio-Rad assay kit according to the manufacturer's instructions. Immunoblotting analysis of iNOS, COX-2, TNF-a, Bcl2 and actin were performed on a cytosolic fraction. Protein concentration was determined and equivalent amounts (50 μg) of each sample were separated under reducing conditions in 12% SDS-polyacrylamide minigel. […] The protein bands were scanned and densitometrically analyzed with a GS-800 imaging densitometer (Bio-Rad Laboratories, Calif., USA)."}, "iNOS [4]": {"system": "iNOS", "assay": "iNOS protein expression in Aβ-stimulated C6 cells, western blot", "type": "cell-based", "conditions": "Aβ (1-42) 1 μg/mL, 24 hours, 10^−7 M", "experimental": "as §1, §3"}, "Aβ-stimulated C6 cells [5]": {"system": "Aβ-stimulated C6 cells", "assay": "Aβ-stimulated C6 cell viability/proliferation, MTT assay", "type": "cell-based", "conditions": "Aβ (1-42) 1 μg/mL, 24 hours", "experimental": "(§4) The cannabinoids tested were CBG, CBC, and CBDV. The cannabinoids were isolated from cannabis plant material and purified. The cannabinoids were tested at a concentration of 10^−9 to 10^−6 M. The cannabinoids were dissolved in DMSO at the concentration of 10^−2M and then diluted in DMEM to their final concentration.\n(§5) Glial cells (C6) were cultured in 10% FBS supplemented DMEM. PC12 neuronal cell were cultured in 10% FBS plus 5% HS supplemented DMEM and SHY-5SY neuronal cells were cultured in 10% FBS supplemented RPMI. Neuronal cells were differentiated with retinoic acid. After 24 hours of starvation glial cells, differentiated PC12 and SHY-5SY neuronal cells were treated with the cannabinoids, CBC, CBG and CBDV, in the presence or absence of 1 μg/mL of Aβ (1-42) for the following 24 hours.\n(§6) Cell viability was determined using 3(4,5-dimethylthiazol-2yl)2,5-diphenyl-2H-tetrazolium bromide (MTT) assay which is an assay based on the ability of viable cells to convert MTT in formazan salt.\nas §2, with “The” for “Cell activation/viability was determined using 3(4,5-dimethylthiazol-2yl)2,5-diphenyl-2H-tetrazolium bromide (MTT) assay, an assay based on the ability of viable cells to convert MTT in formazan salt. Briefly, the”"}, "iNOS [6]": {"system": "iNOS", "assay": "iNOS mRNA level in Aβ-stimulated C6 cells, semi-quantitative RT-PCR", "type": "cell-based", "conditions": "Aβ (1-42) 1 μg/mL, 24 hours; 10^−7 M", "experimental": "as §5\nThe mRNA level of iNOS in C6 cells was determined using the semi-quantitative RT-PCR method. The PCR-primers were selected according to appropriate DNA sequences. 15 μl aliquots of PCR products were electrophoretically fractionated through 1% agarose gel containing the fluorescent Vistra green dye. Labelling intensity of the PCR product, which is linear to the amount of DNA, was quantified using the Molecular Imager FX and Quantity One software (Biorad, Milan, Italy)."}, "TNF-alpha [7]": {"system": "TNF-alpha", "assay": "TNF-alpha release in supernatant of Aβ-treated C6 cells, ELISA", "type": "cell-based", "conditions": "Aβ (1-42) 1 μg/mL, 24 hours, 10^−7 M", "experimental": "as §1\nELISA essay was performed on supernatants of cultured cells. Nunc Maxisorp 96-well microtiter plates (Gibco, Paisley, UK) were coated overnight at 4° C. with 1 μg/well of specific monoclonal antibody anti-TNF, diluted in 0.5 M Na2CO3. The wells were washed three times and then blocked with phosphate-buffered saline (PBS) containing 0.05% (v/v) Tween 20 and 0.3% Fetal Bovine Serum (ELISA buffer) for 30 min at room temperature. The standards and samples were added in a 100-μl volume and incubated at 37° C. for 1.5 h. The standard curve was generated using 0.1 ng to 1 μg/well of purified protein, diluted in ELISA buffer. Following four washes in ELISA buffer, monoclonal antibodies were diluted and added to the wells for 1 h. […] The colour reaction was stopped by addition of HCl and optical densities at 490 nm were measured using a microplate reader."}, "Aβ-stimulated C6 cells [8]": {"system": "Aβ-stimulated C6 cells", "assay": "Nitrite (NO) production in Aβ-stimulated C6 cells, Griess reaction", "type": "cell-based", "conditions": "Aβ (1-42) 1 μg/mL, 24 hours; cannabinoid 10^−9 to 10^−6 M", "experimental": "as §4, §5\nProduction of NO was assayed by measuring the amount of nitrite in the culture medium of C6 cells 24 hours after Aβ(1-42) (1 μg/mL) stimulation using a spectrophotometric assay based on Griess reaction."}, "TNF-alpha [9]": {"system": "TNF-alpha", "assay": "TNF-alpha protein expression in Aβ-stimulated C6 cells, western blot", "type": "cell-based", "conditions": "Aβ (1-42) 1 μg/mL, 24 hours, 10^−7 M", "experimental": "as §1, §3"}, "Bcl2": {"system": "Bcl2", "assay": "Bcl2 protein expression in Aβ-treated SH-SY5Y cells, western blot", "type": "cell-based, human", "conditions": "Aβ (1-42) 1 μg/mL, 24 hours, 10^−7 M", "experimental": "as §1, §3"}, "SH-SY5Y cells [10]": {"system": "SH-SY5Y cells", "assay": "Aβ-induced SH-SY5Y cell viability, MTT assay (Example 1)", "type": "cell-based, human", "conditions": "Aβ (1-42) 1 μg/mL", "experimental": "as §4, §5, §6\nas §2, with “The” for “Cell activation/viability was determined using 3(4,5-dimethylthiazol-2yl)2,5-diphenyl-2H-tetrazolium bromide (MTT) assay, an assay based on the ability of viable cells to convert MTT in formazan salt. Briefly, the”"}, "[11]": {"conditions": "in vivo, pure CBD; cited from earlier work"}}, "data": [{"compound": "CCCCCc1cc(O)c2c(c1)OC(C)(C)[C@@H]1CCC(C)=C[C@@H]21", "note": "[THC, tetrahydrocannabinol]", "values": [{"measurement": "prevention of glutamate toxicity", "setting": "[1]", "value": "could be prevented to some extent"}]}, {"compound": "CCCc1cc2c(c(O)c1C(=O)O)[C@@H]1C=C(C)CC[C@H]1C(C)(C)O2", "note": "[THCVA]", "values": [{"measurement": "Aβ SH-SY5Y cell death (viability, MTT/formazan test)", "setting": "SH-SY5Y cells [2]", "value": "had no effect"}, {"measurement": "Aβ induced SH-SY5Y cell death (viable cell number, cell counting)", "setting": "SH-SY5Y cells [3]", "value": "No significant effect"}]}, {"compound": "C=C(C)[C@@H]1CCC(C)=C[C@H]1c1c(O)cc(CCC)cc1O", "note": "[CBDV, cannabidivarin]", "values": [{"measurement": "COX2 protein expression", "setting": "COX2", "value": "significant reduction"}, {"measurement": "iNOS protein expression", "setting": "iNOS [4]", "value": "significant reduction"}, {"measurement": "Aβ-stimulated C6 cell viability (cell proliferation, MTT)", "setting": "Aβ-stimulated C6 cells [5]; 10^−8 to 10^−6 M", "value": "significantly inhibited cell proliferation"}, {"measurement": "Aβ SH-SY5Y cell death (viability, MTT/formazan test)", "setting": "SH-SY5Y cells [2]", "value": "able to prevent"}, {"measurement": "iNOS mRNA transcription in Aβ-stimulated C6 cells", "setting": "iNOS [6]", "value": "significant reduction of mRNA transcription"}, {"measurement": "TNF-alpha release in the supernatant of cells", "setting": "TNF-alpha [7]", "value": "significantly reduced"}, {"measurement": "Aβ induced SH-SY5Y cell death (viable cell number, cell counting)", "setting": "SH-SY5Y cells [3]", "value": "able to prevent"}, {"measurement": "nitrite production in Aβ-stimulated C6 cells", "setting": "Aβ-stimulated C6 cells [8]", "value": "significantly reduced"}, {"measurement": "TNF-alpha protein expression", "setting": "TNF-alpha [9]", "value": "significant reduction"}, {"measurement": "Bcl2 protein expression", "setting": "Bcl2", "value": "significantly restored"}, {"measurement": "Aβ-induced SH-SY5Y cell death (cell viability, MTT)", "setting": "SH-SY5Y cells [10]; 10^−9 to 10^−6 M", "value": "able to prevent"}]}, {"compound": "C=C(C)[C@@H]1CCC(C)=C[C@H]1c1c(O)cc(CCCCC)cc1O", "note": "[CBD, cannabidiol]", "values": [{"measurement": "prevention of glutamate toxicity", "setting": "[1]", "value": "could be prevented to some extent"}, {"measurement": "Aβ SH-SY5Y cell death (viability, MTT/formazan test)", "setting": "SH-SY5Y cells [2]", "value": "able to prevent"}, {"measurement": "Aβ induced SH-SY5Y cell death (viable cell number, cell counting)", "setting": "SH-SY5Y cells [3]", "value": "able to prevent"}, {"measurement": "difference between treated and placebo treated animals", "setting": "[11]", "value": "failed to find a difference"}]}, {"compound": "C=C(C)[C@@H]1CCC(C)=C[C@H]1c1c(O)cc(CCC)c(C(=O)O)c1O", "note": "[CBDVA, cannabidivarin acid]", "values": [{"measurement": "Aβ SH-SY5Y cell death (viability, MTT/formazan test)", "setting": "SH-SY5Y cells [2]", "value": "able to prevent"}, {"measurement": "Aβ induced SH-SY5Y cell death (viable cell number, cell counting)", "setting": "SH-SY5Y cells [3]", "value": "able to prevent"}]}, {"compound": "C=C(C)[C@@H]1CCC(C)=C[C@H]1c1c(O)cc(CCCCC)c(C(=O)O)c1O", "note": "[CBDA]", "values": [{"measurement": "Aβ SH-SY5Y cell death (viability, MTT/formazan test)", "setting": "SH-SY5Y cells [2]", "value": "had no effect"}, {"measurement": "Aβ induced SH-SY5Y cell death (viable cell number, cell counting)", "setting": "SH-SY5Y cells [3]", "value": "No significant effect"}]}, {"compound": "CCCCCc1cc(O)c2c(c1)OC(C)(CCC=C(C)C)C=C2", "note": "(stereo not shown) [CBC, cannabichromene]", "values": [{"measurement": "Aβ-stimulated C6 cell viability (cell proliferation, MTT)", "setting": "Aβ-stimulated C6 cells [5]; 10^−7 to 10^−6 M", "value": "significantly inhibited cell proliferation"}, {"measurement": "nitrite production in Aβ-stimulated C6 cells", "setting": "Aβ-stimulated C6 cells [8]", "value": "significantly reduced"}, {"measurement": "Aβ-induced SH-SY5Y cell death (cell viability, MTT)", "setting": "SH-SY5Y cells [10]; 10^−6 M (highest concentration used)", "value": "effective only at the highest concentration used"}]}, {"compound": "CCCCCc1cc(O)c(C/C=C(\\C)CCC=C(C)C)c(O)c1", "note": "[CBG, cannabigerol, reference compound]", "values": [{"measurement": "Aβ-stimulated C6 cell viability (cell proliferation, MTT)", "setting": "Aβ-stimulated C6 cells [5]; 10^−9 to 10^−6 M", "value": "had no effect"}, {"measurement": "nitrite production in Aβ-stimulated C6 cells", "setting": "Aβ-stimulated C6 cells [8]", "value": "had no effect"}, {"measurement": "Aβ-induced SH-SY5Y cell death (cell viability, MTT)", "setting": "SH-SY5Y cells [10]; 10^−9 to 10^−6 M", "value": "had no effect"}]}]}
